One assay relates to C. neoformans. As to the kind of experiment: In vitro antifungal activity, MIC by serial agar dilution method (C. neoformans). Type of assay: cell-based. To be noted: Sabouraud dextrose agar, 44 hours at 28° C.; for MIC: Cryptococcus neoformans. On the procedure:
(§1) Antifungal activities of representative compounds of the present invention were evaluated both in vitro and in vivo. The minimum inhibitory concentrations (MICs) against various fungi were determined by serial agar dilution method using Sabouraud dextrose agar. Thus, approximately 0.003 ml of fungal suspension containing 10^6 cells/ml was applied to the surface of agar plates containing the test antibiotics. The MIC values recorded after the cultures had been incubated for 44 hours at 28° C. are set forth below in Table I.
In general terms: In agar dilution the substance is mixed into plates at graded concentrations.

The next assay has as its system T. mentagrophytes. Description: In vitro antifungal activity, MIC by serial agar dilution method (T. mentagrophytes). It is filed as cell-based. To be noted: Sabouraud dextrose agar, 44 hours at 28° C.; for MIC: Trichophyton mentagrophytes. The protocol:
as §1

Another assay concerns C. albicans. Description: In vitro antifungal activity, MIC by serial agar dilution method (C. albicans). To be noted: Sabouraud dextrose agar, 44 hours at 28° C.; for MIC: Candida albicans. Type of assay: cell-based. The protocol:
as §1

In the next assay the test system is A. fumigatus. As to the kind of experiment: In vitro antifungal activity, MIC by serial agar dilution method (A. fumigatus). Type of assay: cell-based. To be noted: Sabouraud dextrose agar, 44 hours at 28° C.; for MIC: Aspergillus fumigatus. On the procedure:
as §1

In another assay the test system is Candida albicans A9540. Description: In vivo activity against Candida albicans A9540 infection in mice. To be noted: A9540, 480 h, male ICR mice, intravenous just after i.v. infection, survival on 20th day, read-out: PD50 (dose that protects 50% of the animals from infection). The protocol:
In vivo activity of compounds of the present invention was tested against Candida albicans A9540 infection in mice. Test organisms were cultured for 18 hours at 28° C. in YGP medium (yeast extract, glucose, peptone, K2 HPO4, MgSO4) and then suspended in saline. Male ICR mice weighing 20 to 24 g were infected intravenously with about 10 times the median lethal dose of the test fungus. The antibiotic at various dose levels was administered to groups of 5 mice each intravenously just after the fungal infection. The dose that protects 50% of the animals from infection (PD50, mg/kg) was calculated from survival rates recorded on the 20th day after the fungal challenge. All control animals died within 7 to 15 days after infection. The PD50 for compounds of Examples 2, 4, and 5 are 18 mg/kg, 11 mg/kg and 8.8 mg/kg, respectively.

For assay [1], the system named is calcium ion and calmodulin-dependent cyclic nucleotide phosphodiesterase. To be noted: cited from earlier work.

Values after ≈ are worked out from the molar mass of the structure shown.

One may read the MIC as the lowest concentration found to suppress growth. A low value points to a more susceptible organism. `CN[C@@H]1[C@H](O[C@@H]2OC[C@@H](O)[C@H](O)[C@H]2O)[C@@H](O)[C@H](O[C@H]2c3cc(C)c(C(=O)N[C@H](C)C(=O)N[C@H](C)C(=O)O)c(O)c3-c3c(cc4c(c3O)C(=O)c3cc(OC)cc(O)c3C4=O)[C@@H]2O)O[C@@H]1C` [Example 1, D-alanyl Pradimicin A]: the MIC against C. neoformans is 6.3 µg/mL (≈ 6.91 µM); in the assay on T. mentagrophytes, > 100 µg/mL; against C. albicans it was 25 µg/mL (≈ 27.4 µM); in the assay with A. fumigatus, > 100 µg/mL.

Take `CN[C@@H]1[C@H](O[C@@H]2OC[C@@H](O)[C@H](O)[C@H]2O)[C@@H](O)[C@H](O[C@H]2c3cc(C)c(C(=O)N[C@H](C)C(=O)N(C)C)c(O)c3-c3c(cc4c(c3O)C(=O)c3cc(OC)cc(O)c3C4=O)[C@@H]2O)O[C@@H]1C` [Example 2, Pradimicin A Dimethylamide]: the minimal inhibitory concentration (MIC) was found to be 1.6 µg/mL (≈ 1.84 µM) against C. neoformans, 12.5 µg/mL (≈ 14.4 µM) in the assay on T. mentagrophytes, 12.5 µg/mL (≈ 14.4 µM) in the assay on C. albicans and 6.3 µg/mL (≈ 7.26 µM) against A. fumigatus. In the assay on Candida albicans A9540, the ED50 was 18 mg/kg.

With `CN[C@@H]1[C@H](O[C@@H]2OC[C@@H](O)[C@H](O)[C@H]2O)[C@@H](O)[C@H](O[C@H]2c3cc(C)c(C(=O)N[C@H](C)C(=O)NN)c(O)c3-c3c(cc4c(c3O)C(=O)c3cc(OC)cc(O)c3C4=O)[C@@H]2O)O[C@@H]1C` [Example 3, Pradimicin A Hydrazide], the MIC in the assay on C. neoformans is 3.1 µg/mL (≈ 3.63 µM); in the assay on T. mentagrophytes, 25 µg/mL (≈ 29.2 µM); in the assay with C. albicans it was 50 µg/mL (≈ 58.5 µM); against A. fumigatus it was 25 µg/mL (≈ 29.2 µM).

On to `CN[C@@H]1[C@H](O[C@@H]2OC[C@@H](O)[C@H](O)[C@H]2O)[C@@H](O)[C@H](O[C@H]2c3cc(C)c(C(=O)N[C@H](C)C(N)=O)c(O)c3-c3c(cc4c(c3O)C(=O)c3cc(OC)cc(O)c3C4=O)[C@@H]2O)O[C@@H]1C` [Example 4, Pradimicin A Amide], for which the MIC with C. neoformans came out at 1.6 µg/mL (≈ 1.91 µM); in the assay on T. mentagrophytes, 12.5 µg/mL (≈ 14.9 µM); against C. albicans it was 6.3 µg/mL (≈ 7.5 µM); in the assay with A. fumigatus, 6.3 µg/mL (≈ 7.5 µM). The ED50 in the assay with Candida albicans A9540 is 11 mg/kg.

`CNC(=O)[C@@H](C)NC(=O)c1c(C)cc2c(c1O)-c1c(cc3c(c1O)C(=O)c1cc(OC)cc(O)c1C3=O)[C@H](O)[C@H]2O[C@@H]1O[C@H](C)[C@H](NC)[C@H](O[C@@H]2OC[C@@H](O)[C@H](O)[C@H]2O)[C@H]1O` [Example 5, Pradimicin A Methylamide]: the MIC with C. neoformans came out at 1.6 µg/mL (≈ 1.87 µM); against T. mentagrophytes it was 6.3 µg/mL (≈ 7.38 µM); in the assay with C. albicans, 6.3 µg/mL (≈ 7.38 µM); in the assay with A. fumigatus it was 6.3 µg/mL (≈ 7.38 µM). In the assay with Candida albicans A9540, the ED50 came out at 8.8 mg/kg.

With `CN[C@@H]1[C@H](O[C@@H]2OC[C@@H](O)[C@H](O)[C@H]2O)[C@@H](O)[C@H](O[C@H]2c3cc(C)c(C(=O)N[C@H](C)C(=O)NCC(=O)O)c(O)c3-c3c(cc4c(c3O)C(=O)c3cc(OC)cc(O)c3C4=O)[C@@H]2O)O[C@@H]1C` [Example 7, Glycyl Pradimicin A], the MIC is 12.5 µg/mL (≈ 13.9 µM) in the assay on C. neoformans, > 50 µg/mL against T. mentagrophytes, > 50 µg/mL against C. albicans and > 50 µg/mL in the assay with A. fumigatus.

For `CC(=O)Cc1cc2c(c(O)c1C(=O)O)-c1cc3c(c(O)c1CC2)C(=O)c1c(O)cc(O)cc1C3=O` [KS-619-1], the “inhibitor of calcium ion and calmodulin-dependent cyclic nucleotide phosphodiesterase” value in assay [1] was “inhibitor”.

Turning to Pradimicin A Butylamide [Example 6], the “MIC C. neoformans” value against C. neoformans is 3.1 µg/mL. The “MIC T. mentagrophytes” value against T. mentagrophytes amounted to 100 µg/mL. Further, the “MIC C. albicans” value in the assay with C. albicans stood at 100 µg/mL. In addition, the “MIC A. fumigatus” value with A. fumigatus amounted to 50 µg/mL.

The record behind these values is patent US5053395A, “Pradimicin amide derivatives” (Bristol-Myers Company, priority 1989, dated 1991).
